Experimental data from ChEMBL document CHEMBL5252522 (Eur J Med Chem, 2016).

What was measured:
Histone deacetylase = format: protein assay, Homo sapiens
Histone deacetylase 9 = Histone deacetylase 9 (Homo sapiens, UniProt Q9UKV0); test: Inhibition of HDAC9 (unknown origin)
Histone deacetylase 1 = Histone deacetylase 1 (Homo sapiens, UniProt Q13547); test: Inhibition of HDAC1 (unknown origin)
Histone deacetylase 5 = Histone deacetylase 5 (Homo sapiens, UniProt Q9UQL6); test: Inhibition of HDAC5 (unknown origin)
Histone deacetylase 5, sequence (Q9UQL6 whole entry): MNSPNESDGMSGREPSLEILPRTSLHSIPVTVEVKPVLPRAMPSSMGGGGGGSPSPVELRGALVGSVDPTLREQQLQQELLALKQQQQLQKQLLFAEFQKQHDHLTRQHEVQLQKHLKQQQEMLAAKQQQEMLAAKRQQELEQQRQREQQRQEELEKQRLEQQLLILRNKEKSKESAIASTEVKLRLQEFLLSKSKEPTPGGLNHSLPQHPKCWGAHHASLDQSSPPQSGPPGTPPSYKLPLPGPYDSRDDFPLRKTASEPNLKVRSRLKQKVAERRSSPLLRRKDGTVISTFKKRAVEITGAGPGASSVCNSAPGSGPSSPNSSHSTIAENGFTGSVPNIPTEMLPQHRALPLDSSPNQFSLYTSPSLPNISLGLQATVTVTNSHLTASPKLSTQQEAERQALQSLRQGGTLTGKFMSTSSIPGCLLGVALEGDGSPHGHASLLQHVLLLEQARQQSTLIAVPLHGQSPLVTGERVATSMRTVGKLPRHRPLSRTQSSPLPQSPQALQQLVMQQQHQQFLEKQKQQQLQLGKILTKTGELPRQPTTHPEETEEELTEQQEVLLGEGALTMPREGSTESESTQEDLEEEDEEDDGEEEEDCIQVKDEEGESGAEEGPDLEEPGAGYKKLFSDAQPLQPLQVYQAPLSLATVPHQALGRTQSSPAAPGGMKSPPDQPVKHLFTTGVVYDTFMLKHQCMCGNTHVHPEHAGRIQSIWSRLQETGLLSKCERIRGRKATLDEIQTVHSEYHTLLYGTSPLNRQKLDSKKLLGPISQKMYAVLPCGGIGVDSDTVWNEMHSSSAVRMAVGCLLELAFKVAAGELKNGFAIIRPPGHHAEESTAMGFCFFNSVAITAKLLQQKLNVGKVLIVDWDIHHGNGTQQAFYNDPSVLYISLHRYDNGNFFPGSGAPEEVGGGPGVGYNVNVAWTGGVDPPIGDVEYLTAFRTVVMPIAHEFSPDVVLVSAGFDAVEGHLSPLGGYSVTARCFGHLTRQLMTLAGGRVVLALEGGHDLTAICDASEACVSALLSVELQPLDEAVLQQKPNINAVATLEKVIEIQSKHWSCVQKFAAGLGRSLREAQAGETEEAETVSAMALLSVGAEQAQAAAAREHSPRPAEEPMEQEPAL

Histone deacetylase 8 = molecular target: T1, Histone deacetylase 8 (Homo sapiens, UniProt Q9BY41); test: Inhibition of HDAC8 (unknown origin)
T1 sequence (Q9BY41 whole entry): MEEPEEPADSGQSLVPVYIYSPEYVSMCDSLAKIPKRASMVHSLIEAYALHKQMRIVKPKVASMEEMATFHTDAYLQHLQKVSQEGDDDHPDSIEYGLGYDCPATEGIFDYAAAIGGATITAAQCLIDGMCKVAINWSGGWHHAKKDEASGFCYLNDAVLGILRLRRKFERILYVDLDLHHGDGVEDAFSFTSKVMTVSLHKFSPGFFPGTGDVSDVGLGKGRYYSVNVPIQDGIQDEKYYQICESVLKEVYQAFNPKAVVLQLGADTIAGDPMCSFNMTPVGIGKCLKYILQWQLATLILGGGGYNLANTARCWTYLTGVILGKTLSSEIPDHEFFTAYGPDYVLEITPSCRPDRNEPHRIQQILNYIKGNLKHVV

Histone deacetylase 3 = Histone deacetylase 3 (Homo sapiens, UniProt O15379); test: Inhibition of HDAC3 (unknown origin)
Histone deacetylase 3, sequence (O15379 whole entry): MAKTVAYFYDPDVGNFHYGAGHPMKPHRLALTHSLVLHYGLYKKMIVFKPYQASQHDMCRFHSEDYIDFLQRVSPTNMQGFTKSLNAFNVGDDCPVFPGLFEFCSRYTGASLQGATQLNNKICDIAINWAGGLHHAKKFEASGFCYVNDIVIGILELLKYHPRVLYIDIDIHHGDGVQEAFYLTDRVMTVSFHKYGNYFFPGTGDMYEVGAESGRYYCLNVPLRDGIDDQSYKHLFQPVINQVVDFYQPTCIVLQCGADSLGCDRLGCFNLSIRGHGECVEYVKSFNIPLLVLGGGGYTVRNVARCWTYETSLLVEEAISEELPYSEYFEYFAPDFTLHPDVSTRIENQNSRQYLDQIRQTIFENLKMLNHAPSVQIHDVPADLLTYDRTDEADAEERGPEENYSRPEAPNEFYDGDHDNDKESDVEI

Histone deacetylase 4 = Histone deacetylase 4 (Homo sapiens, UniProt P56524); test: Inhibition of HDAC4 (unknown origin)
Histone deacetylase 4, sequence (P56524 whole entry): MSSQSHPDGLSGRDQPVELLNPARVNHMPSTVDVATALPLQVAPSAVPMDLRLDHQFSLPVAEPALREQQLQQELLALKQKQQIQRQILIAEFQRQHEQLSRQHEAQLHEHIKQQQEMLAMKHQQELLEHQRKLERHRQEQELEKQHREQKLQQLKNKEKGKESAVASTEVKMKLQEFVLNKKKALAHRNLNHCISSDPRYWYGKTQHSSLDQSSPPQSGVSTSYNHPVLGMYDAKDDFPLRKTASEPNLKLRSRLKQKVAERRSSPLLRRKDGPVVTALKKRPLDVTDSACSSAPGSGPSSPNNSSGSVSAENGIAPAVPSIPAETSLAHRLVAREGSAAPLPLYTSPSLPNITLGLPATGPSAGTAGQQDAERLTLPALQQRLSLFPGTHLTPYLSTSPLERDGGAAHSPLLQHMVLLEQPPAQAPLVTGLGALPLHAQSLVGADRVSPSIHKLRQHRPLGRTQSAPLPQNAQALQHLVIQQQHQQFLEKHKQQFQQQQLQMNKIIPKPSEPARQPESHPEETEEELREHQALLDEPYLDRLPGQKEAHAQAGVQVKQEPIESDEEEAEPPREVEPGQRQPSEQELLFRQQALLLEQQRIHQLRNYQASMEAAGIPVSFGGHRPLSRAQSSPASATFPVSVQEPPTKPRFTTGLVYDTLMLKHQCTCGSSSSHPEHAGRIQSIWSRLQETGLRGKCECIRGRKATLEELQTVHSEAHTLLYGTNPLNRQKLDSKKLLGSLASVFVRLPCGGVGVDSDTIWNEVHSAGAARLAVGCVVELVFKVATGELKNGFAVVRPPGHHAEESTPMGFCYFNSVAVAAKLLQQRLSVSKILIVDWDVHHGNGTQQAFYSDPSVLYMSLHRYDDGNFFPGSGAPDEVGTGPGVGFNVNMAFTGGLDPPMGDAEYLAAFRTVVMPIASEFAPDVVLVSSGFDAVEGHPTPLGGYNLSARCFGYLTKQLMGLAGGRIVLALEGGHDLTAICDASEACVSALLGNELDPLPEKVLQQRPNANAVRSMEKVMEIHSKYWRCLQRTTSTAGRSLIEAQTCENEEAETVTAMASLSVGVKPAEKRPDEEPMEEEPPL

[1] = molecular target: T2, Polyamine deacetylase HDAC10 (Homo sapiens, UniProt Q969S8); test: Inhibition of HDAC10 (unknown origin)
T2 sequence (Q969S8 whole entry): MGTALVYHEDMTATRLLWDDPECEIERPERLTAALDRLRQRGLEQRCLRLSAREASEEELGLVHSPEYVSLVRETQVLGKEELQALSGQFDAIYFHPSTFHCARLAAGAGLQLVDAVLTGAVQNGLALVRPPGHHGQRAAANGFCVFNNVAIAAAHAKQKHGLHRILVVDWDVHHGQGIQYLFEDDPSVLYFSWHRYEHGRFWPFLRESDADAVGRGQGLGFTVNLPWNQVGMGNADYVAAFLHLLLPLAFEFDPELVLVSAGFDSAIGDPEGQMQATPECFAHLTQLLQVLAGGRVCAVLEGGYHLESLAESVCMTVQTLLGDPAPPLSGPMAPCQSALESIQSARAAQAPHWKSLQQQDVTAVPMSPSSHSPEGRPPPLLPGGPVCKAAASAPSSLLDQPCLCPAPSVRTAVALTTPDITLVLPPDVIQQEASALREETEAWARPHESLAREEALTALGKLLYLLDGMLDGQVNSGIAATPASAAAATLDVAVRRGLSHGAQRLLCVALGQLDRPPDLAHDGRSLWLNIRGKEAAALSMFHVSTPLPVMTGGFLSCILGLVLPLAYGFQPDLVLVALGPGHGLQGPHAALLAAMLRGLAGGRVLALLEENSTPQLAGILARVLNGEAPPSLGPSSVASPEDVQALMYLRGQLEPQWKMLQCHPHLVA

Histone deacetylase 11 = molecular target: T3, Histone deacetylase 11 (Homo sapiens, UniProt Q96DB2); test: Inhibition of HDAC11 (unknown origin)
T3 sequence (Q96DB2 whole entry): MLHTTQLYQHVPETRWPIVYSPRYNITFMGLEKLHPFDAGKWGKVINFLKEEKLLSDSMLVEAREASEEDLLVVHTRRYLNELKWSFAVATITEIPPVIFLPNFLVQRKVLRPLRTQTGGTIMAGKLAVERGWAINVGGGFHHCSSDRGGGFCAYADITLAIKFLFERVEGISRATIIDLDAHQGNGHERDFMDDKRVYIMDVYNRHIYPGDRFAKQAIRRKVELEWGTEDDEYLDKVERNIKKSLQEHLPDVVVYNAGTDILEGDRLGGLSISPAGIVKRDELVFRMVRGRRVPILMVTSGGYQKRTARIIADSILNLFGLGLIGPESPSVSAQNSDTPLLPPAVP

Histone deacetylase 7 = molecular target: T4, Histone deacetylase 7 (Homo sapiens, UniProt Q8WUI4); test: Inhibition of HDAC7 (unknown origin)
T4 sequence (Q8WUI4 whole entry): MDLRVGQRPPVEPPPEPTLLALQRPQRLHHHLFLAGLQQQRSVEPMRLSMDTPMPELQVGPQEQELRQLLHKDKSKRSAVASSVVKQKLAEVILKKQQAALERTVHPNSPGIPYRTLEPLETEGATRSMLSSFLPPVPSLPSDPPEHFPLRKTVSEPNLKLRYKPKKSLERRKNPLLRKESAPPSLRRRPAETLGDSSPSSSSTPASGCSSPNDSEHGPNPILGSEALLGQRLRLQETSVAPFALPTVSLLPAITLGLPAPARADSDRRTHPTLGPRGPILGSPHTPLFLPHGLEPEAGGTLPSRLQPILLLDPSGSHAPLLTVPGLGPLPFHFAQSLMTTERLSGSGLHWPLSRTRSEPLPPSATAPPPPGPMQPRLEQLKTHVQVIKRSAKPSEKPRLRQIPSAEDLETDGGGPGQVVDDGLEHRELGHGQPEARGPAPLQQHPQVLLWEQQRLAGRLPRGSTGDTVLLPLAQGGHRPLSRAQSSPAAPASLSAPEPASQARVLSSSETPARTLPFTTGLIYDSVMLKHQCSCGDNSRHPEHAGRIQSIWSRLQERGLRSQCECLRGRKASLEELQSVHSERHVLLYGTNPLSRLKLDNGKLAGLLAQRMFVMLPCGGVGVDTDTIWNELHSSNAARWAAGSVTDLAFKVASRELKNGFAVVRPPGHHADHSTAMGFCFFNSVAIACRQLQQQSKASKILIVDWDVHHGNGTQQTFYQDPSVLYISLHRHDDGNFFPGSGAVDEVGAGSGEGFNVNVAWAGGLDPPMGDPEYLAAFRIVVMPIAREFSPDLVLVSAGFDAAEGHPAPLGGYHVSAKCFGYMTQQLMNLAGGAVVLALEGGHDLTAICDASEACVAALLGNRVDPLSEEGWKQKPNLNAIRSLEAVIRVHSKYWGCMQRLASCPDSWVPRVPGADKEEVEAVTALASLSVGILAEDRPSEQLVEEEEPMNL

Histone deacetylase 2 = Histone deacetylase 2 (Homo sapiens, UniProt Q92769)
Histone deacetylase 2, sequence (Q92769 whole entry): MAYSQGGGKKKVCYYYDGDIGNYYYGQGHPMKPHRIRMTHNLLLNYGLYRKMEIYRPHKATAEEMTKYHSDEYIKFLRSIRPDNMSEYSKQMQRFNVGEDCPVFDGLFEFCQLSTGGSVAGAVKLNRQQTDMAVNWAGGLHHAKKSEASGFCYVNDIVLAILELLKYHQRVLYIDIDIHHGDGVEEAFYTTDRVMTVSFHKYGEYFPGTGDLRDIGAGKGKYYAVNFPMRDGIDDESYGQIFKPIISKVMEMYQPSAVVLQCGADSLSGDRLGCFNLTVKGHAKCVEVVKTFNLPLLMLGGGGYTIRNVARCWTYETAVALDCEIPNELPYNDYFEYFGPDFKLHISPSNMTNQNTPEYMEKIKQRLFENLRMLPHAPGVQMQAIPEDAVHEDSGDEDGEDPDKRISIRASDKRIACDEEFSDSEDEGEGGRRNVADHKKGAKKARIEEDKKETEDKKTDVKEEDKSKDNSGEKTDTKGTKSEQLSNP

[2] = molecular target: T5, Protein deacetylase HDAC6 (Homo sapiens, UniProt Q9UBN7); test: Inhibition of HDAC6 (unknown origin)
T5 sequence (Q9UBN7 whole entry): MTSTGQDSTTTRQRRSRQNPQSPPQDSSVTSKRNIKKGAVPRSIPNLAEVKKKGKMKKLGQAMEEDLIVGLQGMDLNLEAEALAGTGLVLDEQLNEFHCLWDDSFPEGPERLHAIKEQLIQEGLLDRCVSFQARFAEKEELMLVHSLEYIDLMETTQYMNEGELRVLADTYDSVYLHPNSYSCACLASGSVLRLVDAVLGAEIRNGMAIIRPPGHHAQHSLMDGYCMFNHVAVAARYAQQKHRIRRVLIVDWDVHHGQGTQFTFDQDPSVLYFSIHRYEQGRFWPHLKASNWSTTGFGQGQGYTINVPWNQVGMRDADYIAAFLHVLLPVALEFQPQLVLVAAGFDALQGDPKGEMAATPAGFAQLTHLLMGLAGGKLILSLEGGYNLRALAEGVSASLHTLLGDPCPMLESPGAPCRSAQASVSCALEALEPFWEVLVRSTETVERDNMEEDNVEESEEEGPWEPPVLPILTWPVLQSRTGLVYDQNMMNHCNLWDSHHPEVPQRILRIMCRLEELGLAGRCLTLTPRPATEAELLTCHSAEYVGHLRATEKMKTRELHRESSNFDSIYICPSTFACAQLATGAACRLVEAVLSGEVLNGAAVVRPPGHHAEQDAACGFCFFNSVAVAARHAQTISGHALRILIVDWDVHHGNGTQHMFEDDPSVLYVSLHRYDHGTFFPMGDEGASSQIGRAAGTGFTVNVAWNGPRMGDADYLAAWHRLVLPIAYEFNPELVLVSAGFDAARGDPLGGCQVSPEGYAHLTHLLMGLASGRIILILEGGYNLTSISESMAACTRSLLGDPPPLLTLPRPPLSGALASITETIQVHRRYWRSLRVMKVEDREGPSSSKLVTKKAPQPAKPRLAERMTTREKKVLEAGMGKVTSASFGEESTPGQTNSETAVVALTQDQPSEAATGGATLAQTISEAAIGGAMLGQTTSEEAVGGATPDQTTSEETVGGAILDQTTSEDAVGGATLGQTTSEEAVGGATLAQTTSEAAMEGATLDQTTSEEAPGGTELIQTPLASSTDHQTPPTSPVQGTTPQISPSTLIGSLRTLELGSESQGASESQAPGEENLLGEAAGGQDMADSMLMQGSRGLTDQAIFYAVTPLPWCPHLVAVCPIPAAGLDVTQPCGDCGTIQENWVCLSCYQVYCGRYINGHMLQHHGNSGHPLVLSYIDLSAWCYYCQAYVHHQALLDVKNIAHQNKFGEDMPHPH

Histone deacetylase 9, sequence (Q9UKV0 whole entry): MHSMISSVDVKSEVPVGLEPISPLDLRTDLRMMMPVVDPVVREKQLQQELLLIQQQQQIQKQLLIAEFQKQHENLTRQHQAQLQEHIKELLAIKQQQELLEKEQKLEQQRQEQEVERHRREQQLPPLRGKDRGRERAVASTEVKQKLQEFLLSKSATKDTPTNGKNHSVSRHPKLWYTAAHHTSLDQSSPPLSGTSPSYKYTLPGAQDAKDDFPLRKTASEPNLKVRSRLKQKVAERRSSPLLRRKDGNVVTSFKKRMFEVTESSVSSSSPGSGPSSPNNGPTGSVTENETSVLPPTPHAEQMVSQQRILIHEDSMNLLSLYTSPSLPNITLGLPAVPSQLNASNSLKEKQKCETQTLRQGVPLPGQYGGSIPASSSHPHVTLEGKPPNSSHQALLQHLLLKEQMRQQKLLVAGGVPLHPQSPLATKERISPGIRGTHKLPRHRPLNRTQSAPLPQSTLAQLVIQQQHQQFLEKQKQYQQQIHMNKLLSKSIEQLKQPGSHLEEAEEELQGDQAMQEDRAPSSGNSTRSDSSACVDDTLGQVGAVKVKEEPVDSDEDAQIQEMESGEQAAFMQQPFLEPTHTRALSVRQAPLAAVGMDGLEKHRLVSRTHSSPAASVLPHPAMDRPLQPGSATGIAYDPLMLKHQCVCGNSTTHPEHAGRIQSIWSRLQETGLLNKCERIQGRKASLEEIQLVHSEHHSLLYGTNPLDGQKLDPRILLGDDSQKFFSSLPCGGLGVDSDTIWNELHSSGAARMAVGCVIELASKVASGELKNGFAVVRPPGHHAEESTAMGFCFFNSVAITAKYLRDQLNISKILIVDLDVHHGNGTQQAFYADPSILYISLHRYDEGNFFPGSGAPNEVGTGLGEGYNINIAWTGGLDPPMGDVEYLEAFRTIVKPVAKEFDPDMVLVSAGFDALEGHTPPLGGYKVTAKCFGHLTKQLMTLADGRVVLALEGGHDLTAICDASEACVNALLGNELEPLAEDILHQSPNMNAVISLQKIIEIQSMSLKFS
Histone deacetylase 1, sequence (Q13547 whole entry): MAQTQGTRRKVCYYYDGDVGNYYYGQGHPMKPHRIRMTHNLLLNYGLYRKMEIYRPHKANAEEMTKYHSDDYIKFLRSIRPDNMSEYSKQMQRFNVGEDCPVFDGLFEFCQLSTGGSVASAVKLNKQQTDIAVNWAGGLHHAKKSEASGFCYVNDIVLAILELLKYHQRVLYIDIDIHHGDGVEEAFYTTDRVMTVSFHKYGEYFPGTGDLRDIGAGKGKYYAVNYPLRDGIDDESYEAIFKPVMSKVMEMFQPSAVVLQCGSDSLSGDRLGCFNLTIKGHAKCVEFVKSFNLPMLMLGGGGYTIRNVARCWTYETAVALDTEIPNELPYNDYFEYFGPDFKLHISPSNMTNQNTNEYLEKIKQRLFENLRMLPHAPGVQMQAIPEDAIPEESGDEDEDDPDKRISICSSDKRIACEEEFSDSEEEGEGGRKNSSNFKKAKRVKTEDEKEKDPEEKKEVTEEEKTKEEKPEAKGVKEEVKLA

SMILES	IC50 (Histone deacetylase 1)	IC50 (Histone deacetylase 8)	IC50 (Histone deacetylase 3)	IC50 (Histone deacetylase 2)	IC50 [2]	also measured
CCc1nnc(NS(=O)(=O)c2ccc(N/C=C3\Sc4ccccc4C3=O)cc2)s1						IC50 (Histone deacetylase): 4200 nM
CC1(C)C(=O)N(c2ccc(C#N)c(C(F)(F)F)c2)C(=O)N1Cc1ccc(-c2cn(CCCCCCC(=O)NO)nn2)cc1						IC50 (Histone deacetylase): 690 nM
O=C(CCCCCCNC(=O)c1c(-c2ccc(O)cc2)sc2cc(O)ccc12)NO	168 nM	400 nM	128 nM	665 nM		
O=C(CCCCCn1cc(-c2ccc(C(=O)c3c(-c4ccc(O)cc4)sc4cc(O)ccc34)cc2)nn1)NO	1030 nM	29900 nM	748 nM	1820 nM		
CCc1nnc(NS(=O)(=O)c2ccc(Nc3nc(C)c(C(=O)Nc4ccccc4)s3)cc2)s1						IC50 (Histone deacetylase): 32000 nM
CC[N+]1=C(/C=C/C=C/C=C2/N(CCCCC(=O)N(CCc3c(C)[nH]c4ccccc34)Cc3ccc(/C=C/C(=O)NO)cc3)c3ccc4c(S(=O)(=O)O)cc(S(=O)(=O)O)cc4c3C2(C)C)C(C)(C)c2c1ccc1c(S(=O)(=O)[O-])cc(S(=O)(=O)O)cc21						IC50 (Histone deacetylase): 9.6 nM
[11CH3]n1cc(CCNCc2ccc(/C=C/C(=O)NO)cc2)c2ccccc21	0.2 nM	1040 nM	0.4 nM	1.2 nM	1.6 nM	IC50 (Histone deacetylase 9): 4850 nM; IC50 (Histone deacetylase 5): 99 nM; IC50 (Histone deacetylase 4): 655 nM; IC50 (Histone deacetylase 7): 2040 nM

Continued, in another order:

IC50 (Histone deacetylase 1)	IC50 (Histone deacetylase 8)	IC50 (Histone deacetylase 3)	IC50 (Histone deacetylase 2)	IC50 [2]	SMILES	also measured
2900 nM	2800 nM	1700 nM			O=C(NO)c1ccc(CC(=O)N(CCO)c2ccccc2)cc1	IC50 (Histone deacetylase 9): > 10000 nM; IC50 (Histone deacetylase 5): > 10000 nM; IC50 (Histone deacetylase 4): > 10000 nM; IC50 [1]: 3000 nM; IC50 (Histone deacetylase 11): > 10000 nM; IC50 (Histone deacetylase 7): > 10000 nM
24 nM	152 nM				O=C(CCc1ccc(Oc2cccs2)c(O)c1)Nc1ccc(C(=O)NO)cc1	
2740 nM			170 nM		OC1(c2ccccc2)C=C(c2ccccc2)CO1 (stereo not drawn)	
66.7 nM				6 nM	CC(C)Cc1c(OCCOc2cccc(/C=C/C(=O)NO)c2)ccc2c1OC(=O)CC2	
290 nM		500 nM		560 nM	O=C(/C=C/c1cccc(Nc2ncnc3cc4c(cc23)OCCO4)c1)NO	
5 nM	150 nM	3.4 nM	0.2 nM	5 nM	CN(CCc1ccccc1)S(=O)(=O)c1cccc(/C=C/C(=O)NO)c1	IC50 (Histone deacetylase 9): 16900 nM; IC50 (Histone deacetylase 5): 10700 nM; IC50 (Histone deacetylase 4): 500 nM
10 nM		5200 nM	20 nM		CN(C)Cc1ccc(C(=O)Nc2cc(-c3ccccc3)ccc2N)cc1	
160 nM		180 nM		560 nM	COc1cc2c(Nc3cccc(/C=C/C(=O)NO)c3)ncnc2cc1OCCCN1CCOCC1	
